Several values for one entry are separate records, joined by “and”; a condition that tells them apart may be missing. Equal entries are not always repeated.
What was measured:
[1] = system: intestinal transit of carbon; test: Anti-spastic activity, vegetable carbon intestinal transit test; format: in vivo, mice; settings: Mus musculus, ip; read-out: antispastic activity ED50 (dose reducing intestinal transit of carbon by 50%)
From the text: The anti-spastic activity which the present compounds exert on the entire digestive system is also notable. Measured in mice with the vegetable carbon test (rate of transit through the stomach and the intestine), this activity is illustrated in the following table.
claimed administered intraperitoneally in mice. Values
expressed as the ED 50 in mg/kg, that is the dose which
reduces the intestinal transit of carbon by 50%

[2] = system: morphine analgesia; test: Increase in analgesia of morphine, Tail Flick Test (Experiment 1); format: in vivo, rats; settings: for percentage variation of latency of pain sensation / M (10-90) ± SE, mean percentage variation of latency: compound 10 mg/kg i.p. + morphine 2 mg/kg; for M (10-90) ± SE, mean percentage variation of latency: mean 10-90 min; for Power ratio with respect to morphine alone: rat, in vivo
How it was run: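 Non-fasted male rats (150-200 g); a tail point is exposed to a 75 °C heat source and latency to tail movement recorded, 8 s cut-off. Readings taken before and 10, 20, 30, 45, 60 and 90 min after analgesic treatment; percentage variation calculated per animal.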

[3] = system: CCK-8 induced contraction of guinea pig gall bladder; test: Anti-CCK-8 activity on gall bladders in situ; format: in vivo; settings: for percentage inhibition of contracting effect of CCK-8: single experiments; for ED50: Cavia porcellus, iv, CCK-8 10 ng/kg i.v., read-out: ED50 (inhibition of 50% of contracting effect of CCK-8)
Experimental: In order to confirm the evidence of the studies in vitro several of the more interesting compounds were tested in vivo on guinea pig gall baldders in situ.
The method used is that described by Ljungberg (Svensk. Farm. Tidskr. 68, 351-354, 1964).
Guinea pigs having a weight of about 400 g, anaesthetised with urethane, were used; the substances under examination were administered intraveneously into the jugular vein.
The responses of the gall bladders to the substances under test were detected by means of a force transducer and recorded by means of a microdynamometer. The optimum contracting dose was chosen as 10 ng/kg of CCK-8. The antagonist compounds tested were administered in increasing doses so as to enable the calculation of an ED50 value, that is in the dose (in mg/kg i.v.) capable of inhibiting 50% of the contracting effect of 10 ng/kg i.v. of CCK-8.
The results obtained are given in Table 7 below, which gives the doses used and the effects obtained expressed as a percentage inhibition of the contracting effect of CCK-8 as well as the ED50 found.

[4] = system: CCK-8 induced contraction of guinea pig gall bladder; test: Anti-CCK activity on gall bladder strips in vitro; settings: for ED50 (concentration antagonising 50% of contracting effect of CCK-8): CCK-8 10 ng/ml
How it was run: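 Longitudinal guinea pig gall bladder strips in Krebs at 32 °C, gassed with O2/CO2 95:5, were contracted with 10 ng/ml CCK-8. Isometric force was recorded across several compound concentrations, and ED50 was taken as the μg/ml concentration antagonising 50% of the CCK contraction.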

[5] = system: endogenous opiates analgesia; test: Analgesic activity of endogenous opiates released by transcutaneous shock, Tail Flick Test (Experiment 3); format: in vivo, rats
How it was run: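 Non-fasted male rats (~200 g) stressed with 60 Hz-2.5 mA front-leg current, 1 s pulses every 5 s for 20 min, to release endogenous opiates. Analgesia measured by tail flick test.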

[6] = system: tolerance induced by morphine; test: Antagonism to development of tolerance to repeated morphine HCl, Tail Flick Test (Experiment 5); settings: compound 10 mg/kg + morphine 5 mg/kg i.p.
Experimental: Experiment No. 5: Antagonism of several products of the invention to the development of tolerance induced in rats by the repeated administration of morphine HCl.
Several of the compounds of the invention were examined to determine their possible capacity to antagonise the development of tolerance induced by morphine. Groups of 6 male rats having a weight of about 200-250 grams were used.
At intervals of 24 hours from the first treatment (time 0) each animal (except the control group treated physiologically) received 5 mg/kg of morphine hydrochloride i.p. together with 10 mg/kg i.p. of the compounds indicated (with the exception of the group treated solely with morphine).
The determination of the pain threshold was effected 15', 30', 45' and 60' from the treatment by the Tail Flick Test.

[7] = system: biliary flow; test: Biliary flow (choleretic activity); format: in vivo, rat; settings: for ED50: Rattus norvegicus, iv, average over 2 hours, read-out: ED50 (dose causing 50% increase in biliary flow)
Experimental: The following experiment was carried out: a cannula was inserted in the bile duct of a rat anaesthetised with urethane, together with a small needle connected to a polythene tube, and the bile liquid was thus collected. The collection was carried out for one hour before the intravenous administration of the tested compounds and for a further two hours after administration, the samples collected at 30 minute intervals being weighed.
In order to prevent possible dehydration of the animals, 0.5 ml of physiological solution was administered at 30 minute intervals up to a total of 3 ml.

[8] = system: enkephalinamide (DALA) analgesia; test: Potentiation of DALA (enkephalinamide) analgesia, i.c.v., Tail Flick Test (Experiment 4); format: in vivo, rats; parameters: scale not given here
From the text: Experiment No. 4: Potentiation of the analgesic activities of enkephalins induced by some of the compounds of the invention. […]

[9] = compound 1 mg/kg iv + stress, 5'
[10] = compound 1 mg/kg iv + stress, 10'
[11] = compound 1 mg/kg iv + stress, 15'
[12] = compound 3 mg/kg iv + stress, 5'
[13] = compound 3 mg/kg iv + stress, 10'
[14] = compound 3 mg/kg iv + stress, 15'

CCCCCN(CCCCC)C(=O)C(CCC(=O)O)NC(=O)c1ccc(Cl)c(Cl)c1 (centres unmarked) [Compound C-7]
ED50 [1]: 16.8 mg/kg | percentage variation of latency of pain sensation ([2]; 10'): 67.9 ± 14.3% | percentage variation of latency of pain sensation ([2]; 20'): 71.5 ± 17.6% | percentage variation of latency of pain sensation ([2]; 30'): 79.4% | percentage variation of latency of pain sensation ([2]; 45'): 84.6 ± 10.5% | percentage variation of latency of pain sensation ([2]; 60'): 92.9 ± 4.1% | percentage variation of latency of pain sensation ([2]; 90'): 72.6 ± 7.0% | M (10-90) ± SE, mean percentage variation of latency [2]: 78.2 ± 9.4% | Power ratio with respect to morphine alone [2]: 2.62 | percentage inhibition of contracting effect of CCK-8 ([3]; 0.003 mg/kg i.v.): -10.6% | percentage inhibition of contracting effect of CCK-8 ([3]; 0.03 mg/kg i.v.): -62.1% and -57.0% and -59.2% | block of gall bladder contractions induced by CCK-8 ([3]; 0.1 mg/kg): can block gall bladder contractions induced by CCK-8 | ED50 [3]: 0.02 mg/kg | active concentration relative to that of CCK-8 ([4]; 50% antagonism of CCK-8): about 10 times | ED50 (concentration antagonising 50% of contracting effect of CCK-8) [4]: 0.06 µg/mL

CCCN(CCC)C(=O)C(CCC(=O)O)NC(=O)c1cccc(C#N)c1 (centres unmarked) [Compound C-20]
ED50 [1]: 77.5 mg/kg | average latency, Tail Flick [5, 9]: 7.5 ± 0.3 s | average latency, Tail Flick [5, 10]: 5.34 ± 0.46 s | average latency, Tail Flick [5, 11]: 3.88 ± 0.29 s | average latency, Tail Flick [5, 12]: 8.48 ± 0.62 s | average latency, Tail Flick [5, 13]: 6.42 ± 0.21 s | average latency, Tail Flick [5, 14]: 4.98 ± 0.36 s | percentage variation of latency of pain sensation ([2]; 10'): 53.8% | percentage variation of latency of pain sensation ([2]; 20'): 85.7 ± 10.0% | percentage variation of latency of pain sensation ([2]; 30'): 92.0 ± 8.0% | percentage variation of latency of pain sensation ([2]; 45'): 99.1 ± 1.0% | percentage variation of latency of pain sensation ([2]; 60'): 91.2 ± 9.0% | percentage variation of latency of pain sensation ([2]; 90'): 51.2% | M (10-90) ± SE, mean percentage variation of latency [2]: 78.8 ± 21.0% | Power ratio with respect to morphine alone [2]: 2.64 | percentage variation in latency time (Effect %) ([6]; 24 h): 53.36% | percentage variation in latency time (Effect %) ([6]; 48 h): 48.17% | percentage variation in latency time (Effect %) ([6]; 72 h): 53.67% | percentage variation in latency time (Effect %) ([6]; 96 h): 31.56% | percentage variation in latency time (Effect %) ([6]; 120 h): 41.67% | percentage variation in latency time (Effect %) ([6]; 144 h): 14.48% | percentage variation in latency time (Effect %) ([6]; 168 h): 13.75% | percentage variation in latency time (Effect %) ([6]; time 0): 72.15% | % increase in biliary flow with respect to controls ([7]; 12.5 mg/kg i.v.): +48.5% | % increase in biliary flow with respect to controls ([7]; 25 mg/kg i.v.): +63.9% | % increase in biliary flow with respect to controls ([7]; 50 mg/kg i.v.): +108.0% | ED50 [7]: 19.4 mg/kg | ED50 (concentration antagonising 50% of contracting effect of CCK-8) [4]: > 200 µg/mL | analgesic activity, Tail Flick ([8]; DALA 10 + compound 0.003 μg/kg ICV, 10'): 5.7 | analgesic activity, Tail Flick ([8]; DALA 10 + compound 0.003 μg/kg ICV, 20'): 44.6 | analgesic activity, Tail Flick ([8]; DALA 10 + compound 0.003 μg/kg ICV, 30'): 32.3 | analgesic activity, Tail Flick ([8]; DALA 10 + compound 0.003 μg/kg ICV, 45'): 30.1 | analgesic activity, Tail Flick ([8]; DALA 10 + compound 0.003 μg/kg ICV, 60'): 24.5 | analgesic activity, Tail Flick ([8]; DALA 10 + compound 0.003 μg/kg ICV, 90'): 72. | MEAN analgesic activity, Tail Flick ([8]; DALA 10 + compound 0.003 μg/kg ICV): 24.1 | analgesic activity, Tail Flick ([8]; DALA 10 + compound 0.01 μg/kg ICV, 10'): 16.5 | analgesic activity, Tail Flick ([8]; DALA 10 + compound 0.01 μg/kg ICV, 20'): 62.5 | analgesic activity, Tail Flick ([8]; DALA 10 + compound 0.01 μg/kg ICV, 30'): 64.1 | analgesic activity, Tail Flick ([8]; DALA 10 + compound 0.01 μg/kg ICV, 45'): 45.4 | analgesic activity, Tail Flick ([8]; DALA 10 + compound 0.01 μg/kg ICV, 60'): 45.3 | analgesic activity, Tail Flick ([8]; DALA 10 + compound 0.01 μg/kg ICV, 90'): 16.3 | MEAN analgesic activity, Tail Flick ([8]; DALA 10 + compound 0.01 μg/kg ICV): 41.7

CCCN(CCC)C(=O)C(CCC(=O)O)NC(=O)c1ccc(C(C)C)cc1 (centres unmarked) [Compound C-36]
ED50 [1]: 208 mg/kg | average latency, Tail Flick [5, 9]: 6.9 ± 0.74 s | average latency, Tail Flick [5, 10]: 6.5 ± 0.42 s | average latency, Tail Flick [5, 11]: 4.66 ± 0.55 s | average latency, Tail Flick [5, 12]: 9.22 ± 0.67 s | average latency, Tail Flick [5, 13]: 8.1 ± 0.43 s | average latency, Tail Flick [5, 14]: 9.28 ± 0.64 s | percentage variation of latency of pain sensation ([2]; 10'): 8.6% | percentage variation of latency of pain sensation ([2]; 20'): 100.0 ± 0% | percentage variation of latency of pain sensation ([2]; 30'): 96.9 ± 3% | percentage variation of latency of pain sensation ([2]; 45'): 90.0 ± 10% | percentage variation of latency of pain sensation ([2]; 60'): 96.9 ± 3% | percentage variation of latency of pain sensation ([2]; 90'): 92.4 ± 25% | M (10-90) ± SE, mean percentage variation of latency [2]: 80.8 ± 36% | Power ratio with respect to morphine alone [2]: 2.71 | percentage inhibition of contracting effect of CCK-8 ([3]; 10 mg/kg i.v.): 64.8% and 71.6% and 63.3% and 78.7% | percentage inhibition of contracting effect of CCK-8 ([3]; 30 mg/kg i.v.): 100% | ED50 [3]: 5.1 mg/kg | % increase in biliary flow with respect to controls ([7]; 12.5 mg/kg i.v.): +15.5% | % increase in biliary flow with respect to controls ([7]; 25 mg/kg i.v.): +48.5% | % increase in biliary flow with respect to controls ([7]; 100 mg/kg i.v.): +215.8% | ED50 [7]: 26.8 mg/kg | ED50 (concentration antagonising 50% of contracting effect of CCK-8) [4]: 13.4 µg/mL

Source: patent US4791215A, “Derivatives of glutamic acid and aspartic acid” (priority 1984, dated 1988)
